{"source": "patent US20260355199A1", "about": "“COMPOSITIONS AND METHODS FOR TREATING OR PREVENTING NONALCOHOLIC STEATOHEPATITIS (NASH), ANOREXIA, DEPRESSION, ENDOMETRIOSIS, AND OTHER DISEASES OR DISORDERS” (priority 2022, published 2026)", "key": {"TGF-β1, IL-1β, and IL-6": {"system": "TGF-β1, IL-1β, and IL-6", "assay": "TGF-β1, IL-1β and IL-6 expression in human MDMs", "format": "cell-based", "details": "TGF-β1-treated MDMs", "description": "Next, the studies examined effects of TET3 knockdown on expression of TGF-β1, IL-1β, and IL-6 in human MDMs. TGF-β1 has been mechanistically linked to the pathogenesis NSCLC, endometriosis, and NASH (Saito et al., 2018, Int J Mol Sci, 19; Young et al., 2017, Hum Reprod Update, 23:548-559; Cai et al., 2020, Cell Metab, 31:406-421; Baba et al., 2022, Front Pharmacol, 13:791272). It is also an important factor in the conditioned media responsible for inducing TET3 overexpression (FIG. 24H, FIG. 24J, and FIG. 24K through FIG. 24M). Therefore, MDMs were treated with TGF-β1 to mimic microenvironment-induced TET3 overexpression, followed by siRNA transfection and gene expression analyses. […] ELISA was not used to measure TGF-β1 because the transfection experiments were performed in the presence of exogenous TGF-β1. […]\nProinflammatory activation of peritoneal macrophages and MDMs was achieved by treatment with a combination of 10 ng/mL of LPS (Invitrogen, 00-4976-93) and 20 ng/mL of IFN-γ (R&D Systems, 485-MI-100). IL-1β and IL-6 protein levels in the supernatant of cultured mouse peritoneal macrophages were measured using ELISA kits (R&D Systems, MLB00C and M6000B-1). […]\nIL-1β protein level of cell lysates and IL-6 protein level of cell supernatants were determined using the kits (Elabscience, E-EL-H0149c and E-EL-H6165, respectively) according to the manufacturer's protocols. […]"}, "TET3 and TET2 mRNA": {"system": "TET3 and TET2 mRNA", "assay": "TET3 and TET2 mRNA in human MDMs", "format": "cell-based", "parameters": "TET3 and TET2 mRNA levels: dose or concentration left out as unconfirmed", "details": "24 h", "procedure": "For siRNA transfection in a 24-well plate scale of MDMs, NT siRNA or TET3 siRNA (4392420/s47239, Ambion) was mixed with 25 μL of OPTI-MEM by gentle pipetting. In parallel, 1.5 μL of Lipofectamine RNAiMAX was mixed with 25 μL of OPTI-MEM by gentle pipetting. Following 5 min of incubation at RT, the resulting 50 μl of transfection solution was added to each well of cells containing 450 μL of growth media.\nBobcat339 Treatment of Cultured Cells Bobcat339 powder (Sigma-Aldrich, SML2611) was freshly dissolved in DMSO at a concentration of 5 mM and filtered through a 0.22 micron. […]\nFor cultured MDMs, cells were primed with CM-Endo or TGF-β1 (PeproTech, 100-21) for 36-48 h (to increase TET3 expression) before Bobcat339 treatment.\n(§1) Total RNAs were extracted from cells using PureLink RNA Mini Kit. 0.5-1 μg total RNA was reverse transcribed to cDNA in a reaction volume of 20 μL using PrimeScript RT Reagent Kit. Real-time quantitative PCR was performed in a 15 μL reaction volume containing 0.5-1 μL of cDNA using SsoAdvanced Universal SYBR Green Supermix in a Bio-Rad iCycler. Gene expression levels were normalized against RPLP0."}, "Tet3 mRNA": {"system": "Tet3 mRNA", "assay": "Tet3/Tet2 mRNA in RAW 264.7 cells", "format": "cell-based, mouse", "details": "RAW 264.7, 10 μM, 24 h", "procedure": "For siRNA transfection in a 24-well plate scale of Raw 264.7 cells, 10 pmol of NT siRNA (AM4636, Ambion) or Tet3 siRNA (4390815/s101483, Ambion) was mixed with 100 μL of OPTI-MEM (Gibco, 31985-070) by gentle pipetting. In parallel, 3 μL of Lipofectamine RNAiMAX (Invitrogen, 13778-150) was mixed with 100 μL of OPTI-MEM by gentle pipetting. Following 5 min of incubation at RT, the two were combined and the resulting 200 μL of transfection solution was added to each well of cells. After 24 h of incubation at […] in a 5% humidified CO2 tissue culture incubator, 300 μL of growth media was added and incubation was continued until cell harvesting.\nBobcat339 Treatment of Cultured Cells Bobcat339 powder (Sigma-Aldrich, SML2611) was freshly dissolved in DMSO at a concentration of 5 mM and filtered through a 0.22 micron. Cells grown at a density of 80-90% were incubated in growth media with vehicle (DMSO) or Bobcat339 at a final concentration of 10 μM for 24 h, followed by RNA and protein extraction.\nas §1"}}, "note": "Entries after “also recorded” stand apart in the source; their conditions may differ.", "data": [{"molecule": "Nc1nc(=O)n(-c2cccc(-c3ccccc3)c2)cc1Cl", "note": "[Bobcat339, 4-Amino-1-[1,1′-biphenyl]-3-yl-5-chloro-2(1H)-pyrimidinone]", "values": [{"measurement": "TGF-β1, IL-1β, and IL-6 expression", "setting": "TGF-β1, IL-1β, and IL-6", "result": "able to recapitulate these effects on all three factors"}, {"measurement": "TET3 and TET2 mRNA", "setting": "TET3 and TET2 mRNA; 10 μM", "result": "did not alter the mRNA levels of TET3 and TET2; also recorded: no significant differences in their expression"}, {"measurement": "TET3 and TET2 mRNA levels", "setting": "TET3 and TET2 mRNA", "result": "did not alter the mRNA levels of TET3 and TET2"}, {"measurement": "Tet3 mRNA", "setting": "Tet3 mRNA", "result": "without altering its mRNA abundance; also recorded: no significant difference in expression between the groups"}]}]}
